Results on 20 compounds are retold here after US20030134859A1 (SANKYO COMPANY, LIMITED, priority 2000, published 2003).

One assay deals with Rat white adipocytes. In words: Stimulation of differentiation of the adipocytes (Oil Red O). Type of assay: cell-based. As to conditions: 100 nM test compound, 5 days, Oil Red O ABS550, control = 100%, blank = 0%, Table 7; for activity at 0.1 µM: Rattus norvegicus, Adipocyte, 120 h, read-out: Rate of Differentiation (%). Here is the method:
Rat white adipocytes contained in the white adipocyte culture kit, which was purchased from HOKUDO, were used. Mediums for proliferation and for differentiation-inducing, which were contained in the white adipocyte culture kit purchased from HOKUDO, were used.
Immediately after arrival of the purchased cells, all medium for transportation was discarded and replaced with 5 ml of proliferation medium (/25 cm^2-flask) and the cells were cultured for one day. Then, a cell suspension was prepared with proliferation medium so as to be 83,000 cells/mL, and the suspension was plated into a type I 96-well collagen-coated microplate (SUMITOMO BAKELITE CO., ltd.) so as to be 5,000 cells/well (60 μL/well). For the blank, the proliferation medium without the cells was plated into the well (blank well) of each plate.
Further, 1) in the group treated with the test compound, 3 μL/well of a solution in which the test compound (100 μM) was dissolved in DMSO solution and diluted with differentiation-inducing medium by 20 times (final concentration of the test compound: 100 nM, final concentration of DMSO: 0.1% (v/v)) were added to the well where the cells were plated. 2) In the control group, 3 μL/well of DMSO solution that was diluted with differentiation-inducing medium by 20 times (final concentration of DMSO: 0.1% (v/v)) were added to the well where the cells were plated. Further, 3) in the blank group, 3 μL/well of DMSO solution that was diluted with differentiation-inducing medium by 20 times (final concentration: 0.1% (v/v)) were added to the blank well.
After culturing for 5 days, all differentiation-inducing medium was discarded and replaced with 60 μL of 10% (v/v) of formaldehyde solution (for fixation) in each well and the cells were kept stationary for 20 min at room temperature. After this the fixative solution was discarded and replaced with 60 μL of 0.2% (v/v) Triton X (Sigma-Aldrich Japan K. K.) solution in each well and kept stationary for 5 min at the room temperature. Then all Triton X solution was discarded and replaced with 60 μL of 60% (v/v) isopropanol solution containing dissolved Oil Red 0 (Sigma-Aldrich Japan K. K.) so as to be 0.3%, which was adipose tissue staining solution, and the well was left stationary for 10 min at room temperature. After the adipose tissue staining solution was discarded, the well was washed twice with 60 μL of 60% (v/v) isopropanol solution. Then, 100 μL of the DMSO were added to each well and stirred for 5 min at room temperature. The absorbance was measured at 550 nm (ABS550) with a multi-plate reader (LabsSystems), and the stained amount by Oil Red 0 was determined. The measured level at ABS550 in the control group was defined as 100%, while the level at ABS550 in the blank group was defined as 0%. The differentiation rate (%) of the adipocytes treated with the test compound was calculated.

The subject of the next assay is leptin production. Put plainly: Enhancing activity for leptin production in adipocytes (ELISA). It counts as cell-based, rat. As to conditions: leptin concentration as % of control group; for Facilitating activity to produce leptin: 24 hr. The method in brief: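 Leptin release, quantified by rat leptin ELISA, expressed as percent of 0.1% DMSO control after 24 h at 37 °C. Cells were floating adipocytes isolated by collagenase digestion of epididymal fat from male 6-week Wistar Imamichi rats; compound tested at 1 nM–1 µM final.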
In general terms: In an ELISA, binding on a coated surface is turned into a signal by an enzyme label.

Setting [1] is: Rattus norvegicus, Adipocyte, 24 h, 100 nm, read-out: Facilitating activity to produce leptin.
The mark [2] stands for this setting: Rattus norvegicus, Adipocyte, 24 h, read-out: Facilitating activity to produce leptin.

Molecules are shown by their SMILES. Where a name gives a salt, the structure may show the parent alone.

`NC(=O)Nc1ccc2nc(NC(=O)c3cc([N+](=O)[O-])ccc3Cl)sc2c1` [Example 281, N-(6-Aminocarbonylaminobenzothiazol-2-yl)-(2-chloro-5-nitrophenyl)carboxamide]: the activity at 0.1 µM in the assay on Rat white adipocytes amounted to 200%.

As to `CC(=O)Nc1ccc2nc(NC(=O)c3cc([N+](=O)[O-])ccc3Cl)sc2c1` [Example 280, N-(6-Acetylaminobenzothiazol-2-yl)-(2-chloro-5-nitrophenyl)carboxamide], the activity at 0.1 µM in the assay on Rat white adipocytes worked out at 190%.

Turning to `Nc1ccc2nc(NC(=O)c3cc([N+](=O)[O-])ccc3Cl)sc2c1` [Example 261, N-(6-Aminobenzothiazol-2-yl]-(2-chloro-5-nitrophenyl)carboxamide], the activity at 0.1 µM with Rat white adipocytes was determined as 129%.

Take `NC(=O)N1CCN(c2ccc(NC(=O)c3cc([N+](=O)[O-])ccc3Cl)cc2)CC1` [Example 264, N-[4-[(4-Aminocarbonyl)piperazin-1-yl]phenyl]-(2-chloro-5-nitrophenyl)carboxamide]: in the assay on Rat white adipocytes, the “Rate of Differentiation (%)” value is 111.5%.

Take `CC(=O)N1CCN(c2ccc(NC(=O)c3cc([N+](=O)[O-])ccc3Cl)cc2)CC1` [Example 183, N-[4-(4-Acetylpiperazin-1-yl)phenyl]-(2-chloro-5-nitrophenyl)carboxamide]: the activity at 0.1 µM amounted to 112% in the assay on leptin production (setting [1]) and 118% in the assay with Rat white adipocytes.

On to `CCOC(=O)Cc1ccc(NC(=O)c2cc([N+](=O)[O-])ccc2Cl)cc1` [Example 168, Ethyl [4-(2-chloro-5-nitrobenzoylamino)phenyl]acetate], for which the activity at 0.1 µM in the assay on Rat white adipocytes came out at 140%.

For the compound `CCN(CC)c1ccc(NC(=O)c2cc([N+](=O)[O-])ccc2Cl)cc1` [Example 172, N-(4-Diethylaminophenyl)-(2-chloro-5-nitrophenyl)carboxamide], the activity at 0.1 µM in the assay on Rat white adipocytes was 120%.

Turning to `CC(C)(C)OC(=O)N1CCN(C(=O)c2ccc(NC(=O)c3cc([N+](=O)[O-])ccc3Cl)cc2)CC1` [Example 166, N-[4-(4-tert-Butoxycarbonylpiperazin-1-ylcarbonyl)phenyl]-(2-chloro-5-nitrophenyl)carboxamide], the activity at 1 µM in the assay on leptin production (setting [2]) was 114%. Besides, the activity at 0.1 µM with leptin production (setting [1]) and with Rat white adipocytes was 115% in each case.

As to `Cl.NCCc1ccc(NC(=O)c2cc([N+](=O)[O-])ccc2Cl)cc1` [Example 169, N-[4-(2-Aminoethyl)phenyl]-(2-chloro-5-nitrophenyl)carboxamide Hydrochloride 0.2 Hydrate], in the assay on leptin production (100 nm), the “Facilitating activity to produce leptin” value is given as 111.6%. Besides, the “Rate of Differentiation (%)” value in the assay on Rat white adipocytes came out at 114.9%.

With `O=C(O)Cc1ccc(NC(=O)c2cc([N+](=O)[O-])ccc2Cl)cc1` [Example 170, [4-(2-Chloro-5-nitrobenzoylamino)phenyl]acetic Acid], the activity at 0.1 µM in the assay with leptin production (setting [1]) amounted to 117%; in the assay with Rat white adipocytes it was 115%.

As to `CCN(CC)c1ccc(NC(=O)c2cc([N+](=O)[O-])ccc2Cl)c(C)c1` [Example 131, N-[4-(Diethylamino)-2-methylphenyl]-(2-chloro-5-nitrophenyl)carboxamide], the activity at 0.1 µM in the assay on Rat white adipocytes worked out at 132%.

Take `CCCCCCNc1ccc(NC(=O)c2cc([N+](=O)[O-])ccc2Cl)cc1` [Example 137, N-(4-n-Hexylaminophenyl)-(2-chloro-5-nitrophenyl)carboxamide]: the activity at 0.1 µM in the assay on Rat white adipocytes was 150%.

Consider `CCNc1ccc(NC(=O)c2cc([N+](=O)[O-])ccc2Cl)cc1` [Example 115, N-(4-Ethylaminophenyl)-(2-chloro-5-nitrophenyl)carboxamide mono-hydrochloride], for which, in the assay on Rat white adipocytes, the activity at 0.1 µM is 147%.

With `CC(C)(C)c1cc(C(=O)Nc2cccc(NC(=O)c3cc([N+](=O)[O-])ccc3Cl)c2)cc(C(C)(C)C)c1O` [Example 162, N-[3-[(3,5-di-tert-Butyl-4-hydroxybenzoyl)amino]phenyl]-(2-chloro-5-nitrophenyl)carboxamide], the activity at 1 µM in the assay with leptin production (setting [2]) came to 111%. The activity at 0.1 µM in the assay with Rat white adipocytes was 170%.

As for `CS(=O)(=O)Nc1ccc(-c2csc(NC(=O)c3cc([N+](=O)[O-])ccc3Cl)n2)cc1` [Example 262, N-[4-(4-Methanesulfonylaminophenyl)thiazol-2-yl]-(2-chloro-5-nitrophenyl)carboxamide], the activity at 0.1 µM in the assay with Rat white adipocytes is 167%.

For the compound `CC(=O)Nc1ccc(-c2csc(NC(=O)c3cc([N+](=O)[O-])ccc3Cl)n2)cc1` [Example 263, N-[4-(4-Acetylaminophenyl)thiazol-2-yl]-(2-chloro-5—nitrophenyl)carboxamide], the activity at 0.1 µM with Rat white adipocytes came out at 154%.

On to `CN(C)c1ccc(NC(=O)c2cc([N+](=O)[O-])ccc2Cl)cc1` [Example 173, N-(4-Dimethylaminophenyl)-(2-chloro-5-nitrophenyl)carboxamide], for which the activity at 1 µM in the assay on leptin production (setting [2]) came out at 119%. The activity at 0.001 µM in the assay with leptin production (Rattus norvegicus, Adipocyte, 24 h, 1 nm, read-out: Facilitating activity to produce leptin) stood at 112%. The activity at 0.1 µM in the assay with Rat white adipocytes was 134%.

`CC(=O)Nc1cccc(-c2csc(NC(=O)c3cc([N+](=O)[O-])ccc3Cl)n2)c1` [Example 277, N-[4-(3-Acetylaminophenyl)thiazol-2-yl]-(2-chloro-5-nitrophenyl)carboxamide]: the activity at 0.1 µM in the assay on Rat white adipocytes came to 123%.

`O=C(Nc1ccc(S(=O)(=O)Nc2ccc(-n3ccnc3)cc2)cc1)c1cc([N+](=O)[O-])ccc1Cl` [Example 187, N-[[4-[4-(Imidazol-1-yl)phenyl]aminosulfonyl]phenyl]-(2-chloro-5-nitrophenyl)carboxamide]: the “Facilitating activity to produce leptin” value with leptin production (10 nm) is listed as 113.3%; with leptin production (100 nm), 126.2%. In addition, the “Rate of Differentiation (%)” value with Rat white adipocytes was 112.7%.

With `O=C(Nc1ccc(N2CCNCC2)cc1)c1cc([N+](=O)[O-])ccc1Cl` [Example 133, N-[4-(Piperazin-1-yl)phenyl]-(2-chloro-5-nitrophenyl)carboxamide], the activity at 0.1 µM in the assay on Rat white adipocytes worked out at 141%.
